Assay results published in US7037929B1, “2-amino-thiazole derivatives, process for their preparation, and their use as antitumor agents” (Pharmacia & Upjohn S.p.A., priority 1998, dated 2006).

Molecular target: cdk2/cyclin A complex (Homo sapiens, UniProt P24941)
Test: inhibition assay of cdk2/Cyclin A activity (MultiScreen-PH phosphocellulose filter plate, 33P-ATP, histone H1)
Format: biochemical
Conditions: ATP and histone H1 substrate concentrations varied; random bireactant system equation; read-out: inhibiting activity towards the cdk2/cyclin A complex (Ki)
Procedure: The inhibiting activity of putative cdk/cyclin inhibitors and the potency of selected compounds was determined through a method of assay based on the use of the MultiScreen-PH 96 well plate (Millipore), in which a phosphocellulose filter paper was placed at each well bottom allowing binding of positive charged substrate after a washing/filtration step.
When a radioactivity labelled phosphate moiety was transferred by the ser/threo kinase to the filter-bound histone, light emitted was measured in a scintillation counter. The inhibition assay of cdk2/Cyclin A activity was performed according to the following protocol:
Kinase reaction: 1.5 μM histone H1 substrate, 25 μM ATP (0. 5 μCi P^33γ-ATP), 30 ng Cyclin A/cdk2 complex, […] in a final volume of 100 μl buffer (TRIS HCl 10 mM pH 7.5, MgCl2 10 mM, 7.5 mM DTT) were added to each well of a 96 U bottom well plate. After 10 min at 37° C. incubation, reaction was stopped by 20 μl EDTA 120 mM.
Capture: 100 μl were transferred from each well to MultiScreen plate, to allow substrate binding to phosphocellulose filter. […]
Detection: filters were allowed to dry at 37° C., then 100 μl/well scintillant were added and ^33P labelled histone H1 was detected by radioactivity counting in the Top-Count instrument.
Results: data were analysed and expressed as % inhibition referred to total activity of enzyme (=100%). […]

- Ki: 100 nM
SMILES: CC(C)c1cnc(NC(=O)Cc2ccc(N(C)C)cc2)s1 [2-[4-(dimethylamino)phenyl]-N-(5-isopropyl-1,3-thiazol-2-yl)acetamide]
